Test results from article PMC4550478, “Metronidazole-triazole conjugates: Activity against Clostridium difficile and parasites” (European Journal of Medicinal Chemistry, 2015).
Values after ≈ are worked out from the molar mass of the structure shown. Like-named read-outs stand apart in the source and are kept apart here.

Columns and labels:
G. lamblia 713-M3 (713M) = experiment: ATP-bioluminescence growth and survival assay, metronidazole resistant G. lamblia 713-M3; assay type: cell-based; conditions: Giardia duodenalis, read-out: EC50 G. lamblia 713M
Method: Compounds were tested for antiparasitic activity against E. histolytica (HM1:1MSS strain) and G. lamblia (WB, BRIS/87/HEPU/713 (713), BRIS/83/HEPU/106 (106) and the metronidazole resistant syngeneic line 713-M3 [[15,16]]) using an ATP-bioluminescence based screen for cell growth and survival [[17,18]]. Assay plates were inoculated with trophozoites (5 × 10^3 parasites/well) and incubated in the GasPak™ EZ Anaerobe Gas Generating Pouch Systems (VWR, West Chester, PA) to maintain anaerobic conditions throughout the incubation period. The assays were performed in triplicate using the CellTiter-Glo Luminescent Cell Viability Assay. Metronidazole was used as a positive control.
Trophozoites of E. histolytica strain HM1:IMSS and G. lamblia strains WB, BRIS/87/HEPU/713 (713),^10 BRIS/83/HEPU/106 (106)^11 and the metronidazole resistant syngenic line 713-M3^10,11 were axenically maintained in TYI-S-33 medium supplemented with penicillin (100 U/ml), streptomycin (100 µg/ml).^12 E. histolytica and G. lamblia trophozoites were counted using a particle counter (Beckman Coulter, Fullerton, CA). All experiments were performed using trophozoites harvested during the logarithmic phase of growth.
A three-fold serial dilution was then performed yielding a concentration range 0.25-625 µM. From this dilution plate, 4 µL were transferred into the 96-well screen plates followed by addition of 96 µL of trophozoites (5,000 parasites) to yield a final 8-point concentration range spanning 0.01- 25 µM. Assay plates were incubated for 48 h at 37 °C in the GasPak^TM EZ Anaerobe Gas Generating Pouch Systems (VWR, West Chester, PA) to maintain anaerobic condition throughout the incubation period. The assays were performed in triplicate using the CellTiter-Glo Luminescent Cell Viability Assay.^13

[1] = system: C. difficile NAP1/027 CD26A54_S; experiment: MIC broth microdilution, C. difficile CD26A54_S; assay type: cell-based, Clostridium difficile; conditions: Clostridioides difficile
[2] = system: C. difficile 630 ATCC BAA-1382; experiment: MIC broth microdilution, C. difficile 630; assay type: cell-based, Clostridium difficile; conditions: Clostridioides difficile, ATCCBAA1382, MtzS, 24 h, median of at least n = 4
Method: (§1) All compounds were tested for activity against a set of anaerobic C. difficile bacteria (630 ATCC BAA-1382, NAP1/027 M7404, NAP1/027 ATCC BAA-1803, VPI10463 ATCC 43255, CD26A54_S and CD26A54_R) and representative ESKAPE pathogens S. aureus (MRSA ATCC 43300), E. coli (ATCC 25922), K. pneumoniae (ATCC 700603), A. baumannii (ATCC 19606) and P. aeruginosa (ATCC 27853) using a standard broth microdilution assay. Selected compounds were tested for activity against H. pylori strains (26695, and clinical isolates MtzS 13/25, MtzR 98/285 and MtzR 13/61) using agar plate dilution, and for antimicrobial activity against […] Gram-positive bacterial strains: Enterococcus faecalis (VanA clinical isolate), Enterococcus faecium (MDR VanA ATCC 51559), Streptococcus pneumoniae (MDR ATCC 700677), S. aureus (MRSA ATCC 43300, MRSA clinical isolate, MRSA/DRSA clinical isolate, GISA NARSA NRS 1, GISA NARSA NRS 17, VRSA NARSA VRS1, VRSA NARSA VRS4 and VRSA NARSA VRS10) using broth microdilution. C. difficile strains were grown at 37 °C in a COY anaerobic chamber (5% H2, 10% CO2, 85% N2). H. pylori strains were grown at 37 °C under a microaerobic atmosphere (5% O2, 10% CO2). All facultative anaerobic bacteria were grown at 37 °C with normal atmospheric oxygen levels. All experiments were performed in duplicate with metronidazole, vancomycin, linezolid or colistin as positive controls for relevant strains (see Table 1). Positive growth control of bacteria and DMSO as well as a negative control of only media were included for every plate. Full assay details are provided in the supplementary information.
(§2) C. difficile ATCC BAA-1382, ATCC BAA-1803, ATCC 43255 and M7404 heat shocked spore stocks (10 µL) were transferred into the anaerobic chamber and 10 µL streaked onto pre-reduced (at least 2.5 hr in anaerobic chamber) BHIS agar plates supplemented with 0.1% w/v sodium taurocholate (BHIS(TA)). Plates were incubated for 24 hours prior to assay to give colonies of size 1-3mm diameter with characteristic uneven borders.
(§3) The minimum inhibition concentration was determined according to the CLSI Methods with modifications in broth and inoculum for C. difficile according to Babakhani et al.^7,8 Briefly, compounds were prepared to 20X final concentration in 100% water, 60% DMSO and 40% water or 60% DMSO and 40% media. The compounds along with standard antibiotics were serially diluted two-fold across the wells of 96-well non-binding surface plates (Non binding surface, Corning). The plates were placed in the anaerobic chamber overnight to reduce. C. difficile bacteria from BHIS(TA) agar plates were cultured anaerobically in BHIS at 37 °C overnight. A sample of culture was then diluted 40-fold in BHIS broth and incubated at 37 °C for approximately 4.5 hrs. The resultant mid-log phase culture (OD600= 0.5-0.6) was diluted to the final concentration of ~1×10^6 CFU/mL, then 50 µL was added to each well of the compound-containing 96-well plates. This gave final cell concentration of 5×10^5 CFU/mL, final volume 100 µL and 3% maximum DMSO concentration. Compound concentration was typically from 64 to 0.03 µg/mL. An antibiotic standard was included on each 96 well plate as well as a positive growth control (no compound) and sterility control (no bacteria). All the plates were covered and incubated at 37 °C for 24 h. MICs were the lowest concentration showing no visible growth.

[3] = system: C. difficile VPI10463 ATCC 43255; experiment: MIC broth microdilution, C. difficile VPI 10463; assay type: cell-based, Clostridium difficile; conditions: Clostridioides difficile, ATCC 43255 / ATCC BAA-1803; VPI 10463, MtzS, 24 h, median of at least n = 4
Method: as §1, §2, §3

[4] = system: C. difficile NAP1/027 CD26A54_R; experiment: MIC broth microdilution, metronidazole resistant C. difficile CD26A54_R; assay type: cell-based, Clostridium difficile; conditions: Clostridioides difficile
[5] = 24 hr incubation, read-out: MIC C. difficile NAP1/027 CD26A54_S 24 hr
[6] = CD26A54_S, MtzS (intermediary), 48 h growth, read-out: MIC C. difficile NAP1/027 CD26A54_S 48 h
[7] = 24 hr incubation, read-out: MIC C. difficile NAP1/027 CD26A54_R 24 hr
[8] = CD26A54_R, MtzR, 48 h growth, BHIS broth, n = 8, read-out: MIC C. difficile NAP1/027 CD26A54_R 48 h

| SMILES | EC50 (G. lamblia 713-M3 (713M)) [nM] | MIC [1, 5] [µg/mL] | MIC [1, 6] [µg/mL] | MIC [2] [µg/mL] | MIC [3] [µg/mL] | MIC [4, 7] [µg/mL] | MIC [4, 8] [µg/mL] |
| --- | --- | --- | --- | --- | --- | --- | --- |
| Cc1ncc([N+](=O)[O-])n1CCn1cc(-c2ccc(Cl)c(Cl)c2)nn1 [Compound 4d, 1-(2-(2-methyl-5-nitro-1H-imidazol-1-yl)ethyl)-4-(3,4-dichlorophenyl)-1H-1,2,3-triazole] | 1200 | 1 (≈ 2.72 µM) | 1 (≈ 2.72 µM) | 0.5 (≈ 1.36 µM) | 0.5 to 1 (≈ 1.36 to 2.72 µM) | 8 to 16 (≈ 21.8 to 43.6 µM) | 8 to 16 (≈ 21.8 to 43.6 µM) |
| Cc1ccc(-c2cn(CCn3c([N+](=O)[O-])cnc3C)nn2)cc1 [Compound 4e, 1-(2-(2-methyl-5-nitro-1H-imidazol-1-yl)ethyl)-4-(p-tolyl)-1H-1,2,3-triazole] | 1000 | 1 (≈ 3.2 µM) | 1 (≈ 3.2 µM) | 0.5 (≈ 1.6 µM) | 0.25 (≈ 0.8 µM) | 2 (≈ 6.4 µM) | 2 (≈ 6.4 µM) |
| COC(=O)c1cn(CCn2c([N+](=O)[O-])cnc2C)nn1 [Compound 4f, 1-(2-(2-methyl-5-nitro-1H-imidazol-1-yl)ethyl)-4-(methoxycarbonyl)-1H-1,2,3-triazole] | 3100 | 1 (≈ 3.57 µM) | 2 (≈ 7.14 µM) | 1 (≈ 3.57 µM) | 1 (≈ 3.57 µM) | 4 (≈ 14.3 µM) | 4 (≈ 14.3 µM) |
| Cc1ncc([N+](=O)[O-])n1CCn1cc(-c2ccccn2)nn1 [Compound 4h, 1-(2-(2-methyl-5-nitro-1H-imidazol-1-yl)ethyl)-4-(2-pyridinyl)-1H-1,2,3-triazole.xTFA] | 950 | 1 | 1 | 0.5 | 0.5 | 2 | 4 |
| Cc1ncc([N+](=O)[O-])n1CCn1cc(Cc2ccccc2)nn1 [Compound 4k, 1-(2-(2-methyl-5-nitro-1H-imidazol-1-yl)ethyl)-4-benzyl-1H-1,2,3-triazole] | 1100 | 1 (≈ 3.2 µM) | 1 (≈ 3.2 µM) | 0.5 (≈ 1.6 µM) | 0.25 to 0.5 (≈ 0.8 to 1.6 µM) | 2 (≈ 6.4 µM) | 4 (≈ 12.8 µM) |
| Cc1ncc([N+](=O)[O-])n1CCn1cc(C(O)c2ccccc2)nn1 (centres unmarked) [Compound 4l, 1-(2-(2-methyl-5-nitro-1H-imidazol-1-yl)ethyl)-4-(1-phenyl-1-hydroxylmethyl)-1H-1,2,3-triazole] | 3000 | 2 (≈ 6.09 µM) | 2 (≈ 6.09 µM) | 1 (≈ 3.05 µM) | 0.5 (≈ 1.52 µM) | 4 (≈ 12.2 µM) | 4 (≈ 12.2 µM) |
| Cc1ncc([N+](=O)[O-])n1CCn1cc(CN(C)Cc2ccccc2)nn1 [Compound 4m, 1-(2-(2-methyl-5-nitro-1H-imidazol-1-yl)ethyl)-4-(N-benzyl, N-methylaminomethyl)-1H-1,2,3-triazole] | 2200 | 2 (≈ 5.63 µM) | 2 (≈ 5.63 µM) | 2 (≈ 5.63 µM) | 1 to 2 (≈ 2.81 to 5.63 µM) | 8 (≈ 22.5 µM) | 8 (≈ 22.5 µM) |
| Cc1ncc([N+](=O)[O-])n1CCn1cc(-c2ccsc2)nn1 [Compound 4n, 1-(2-(2-methyl-5-nitro-1H-imidazol-1-yl)ethyl)-4-(thiophen-3-yl)-1H-1,2,3-triazole] | 900 | 1 (≈ 3.29 µM) | 1 (≈ 3.29 µM) | 0.5 (≈ 1.64 µM) | 0.25 to 0.5 (≈ 0.821 to 1.64 µM) | 2 (≈ 6.57 µM) | 2 (≈ 6.57 µM) |
